Columns and labels:
Assay in all cases: Test B pre-/postemergence plant response
Assay type in all cases: in vivo
[1] = system: Italian ryegrass (Lolium multiflorum); conditions: for Ryegrass, Italian plant response rating (0 to 100 scale): 62 g ai/ha, 0 is no effect, 13 to 15 days
How it was run: (§1)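 Visual ratings on a 0–100 scale (100 = complete control) were made versus untreated controls 13–15 days after treatment in a greenhouse. Compounds in surfactant-containing non-phytotoxic solvent were applied preemergence to seeds in loam–sand blend or postemergence to 1- to 4-leaf plants (2–18 cm).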

[2] = system: Surinam grass (Brachiaria decumbens); conditions: for Surinam Grass plant response rating (0 to 100 scale): 62 g ai/ha, 0 is no effect, 13 to 15 days
How it was run: as §1

[3] = system: blackgrass (Alopecurus myosuroides); conditions: for Blackgrass plant response rating (0 to 100 scale): 62 g ai/ha, 0 is no effect, 13 to 15 days
How it was run: as §1

[4] = system: corn (Zea mays); conditions: for Corn plant response rating (0 to 100 scale): 62 g ai/ha, 0 is no effect, 13 to 15 days
How it was run: as §1

[5] = system: downy bromegrass (Bromus tectorum); conditions: for Bromegrass, Downy plant response rating (0 to 100 scale): 62 g ai/ha, 0 is no effect, 13 to 15 days
How it was run: as §1

[6] = system: goosegrass (Eleusine indica); conditions: for Goosegrass plant response rating (0 to 100 scale): 62 g ai/ha, 0 is no effect, 13 to 15 days
How it was run: as §1

[7] = system: johnsongrass (Sorghum halepense); conditions: for Johnsongrass plant response rating (0 to 100 scale): 62 g ai/ha, 0 is no effect, 13 to 15 days
How it was run: as §1

[8] = system: kochia (Kochia scoparia); conditions: for Kochia plant response rating (0 to 100 scale): 62 g ai/ha, 0 is no effect, 13 to 15 days
How it was run: as §1

[9] = system: lambsquarters (Chenopodium album); conditions: for Lambsquarters plant response rating (0 to 100 scale): 62 g ai/ha, 0 is no effect, 13 to 15 days
How it was run: as §1

[10] = system: large crabgrass (Digitaria sanguinalis); conditions: for Crabgrass, Large plant response rating (0 to 100 scale): 62 g ai/ha, 0 is no effect, 13 to 15 days
How it was run: as §1

[11] = system: pigweed (Amaranthus retroflexus); conditions: for Pigweed plant response rating (0 to 100 scale): 62 g ai/ha, 0 is no effect, 13 to 15 days
How it was run: as §1

[12] = system: ragweed (common ragweed, Ambrosia elatior); conditions: for Ragweed plant response rating (0 to 100 scale): 62 g ai/ha, 0 is no effect, 13 to 15 days
How it was run: as §1

[13] = system: soybean (Glycine max); conditions: for Soybean plant response rating (0 to 100 scale): 62 g ai/ha, 0 is no effect, 13 to 15 days
How it was run: as §1

[14] = system: velvetleaf (Abutilon theophrasti); conditions: for Velvetleaf plant response rating (0 to 100 scale): 62 g ai/ha, 0 is no effect, 13 to 15 days
How it was run: as §1

[15] = system: wheat (Triticum aestivum); conditions: for Wheat plant response rating (0 to 100 scale): 62 g ai/ha, 0 is no effect, 13 to 15 days
How it was run: as §1

[16] = system: wild oat (Avena fatua); conditions: for Oat, Wild plant response rating (0 to 100 scale): 62 g ai/ha, 0 is no effect, 13 to 15 days
How it was run: as §1

[17] = system: woolly cupgrass (Eriochloa villosa); conditions: for Cupgrass, Woolly plant response rating (0 to 100 scale): 62 g ai/ha, 0 is no effect, 13 to 15 days
How it was run: as §1

[18] = system: yellow nutsedge (Cyperus esculentus); conditions: for Nutsedge, Yellow plant response rating (0 to 100 scale): 62 g ai/ha, 0 is no effect, 13 to 15 days
How it was run: as §1

[19] = 31 g ai/ha, postemergence, scale 0 to 100, 0 is no effect, 100 is complete control
[20] = postemergence, 100 is complete control
[21] = Postemergence, 250 g ai/ha, scale 0 to 100 (0 no effect, 100 complete control)
[22] = Postemergence, 125 g ai/ha, visual rating after 13 to 15 days, scale 0 (no effect) to 100 (complete control)

CCCCCCn1c(-c2ccccc2)ncc(C(=O)C2=C(O)CCCC2=O)c1=O [Compound 94]
5: Plant response rating, Blackgrass [3, 19] | Plant response rating, Wheat [15, 21] | Oat, Wild plant response rating (0 to 100 scale) [16, 20]
45: Plant response rating, Goosegrass [6, 19] | Plant response rating, Johnsongrass [7, 21] | Ragweed plant response rating (0 to 100 scale) [12, 20]
100: Plant response rating, Lambsquarters [9, 21] | Plant response rating, Pigweed [11, 19] | Pigweed plant response rating (0 to 100 scale) [11, 20] | Plant response rating, Pigweed [11, 21]
20: Plant response rating, Blackgrass [3, 21] | Plant response rating, Nutsedge, Yellow [18, 19] | Nutsedge, Yellow plant response rating (0 to 100 scale) [18, 20]
85: Plant response rating, Goosegrass [6, 21]
40: Plant response rating, Ragweed [12, 19]
55: Corn plant response rating (0 to 100 scale) [4, 20] | Kochia plant response rating (0 to 100 scale) [8, 20]
0: Plant response rating, Ryegrass, Italian [1, 19] | Ryegrass, Italian plant response rating (0 to 100 scale) [1, 20] | Plant response rating, Corn [4, 19] | Plant response rating, Bromegrass, Downy [5, 19] | Bromegrass, Downy plant response rating (0 to 100 scale) [5, 20] | Plant response rating, Bromegrass, Downy [5, 22] | Plant response rating, Bromegrass, Downy [5, 21] | Plant response rating, Wheat [15, 19] | Wheat plant response rating (0 to 100 scale) [15, 20] | Plant response rating, Oat, Wild [16, 19]
60: Surinam Grass plant response rating (0 to 100 scale) [2, 20]
80: Plant response rating, Surinam Grass [2, 21] | Plant response rating, Corn [4, 21] | Plant response rating, Lambsquarters [9, 19] | Plant response rating, Ragweed [12, 21] | Soybean plant response rating (0 to 100 scale) [13, 20] | Plant response rating, Velvetleaf [14, 21]
70: Plant response rating, Corn [4, 22] | Goosegrass plant response rating (0 to 100 scale) [6, 20] | Plant response rating, Crabgrass, Large [10, 19] | Velvetleaf plant response rating (0 to 100 scale) [14, 20] | Plant response rating, Cupgrass, Woolly [17, 21]
10: Plant response rating, Ryegrass, Italian [1, 21] | Blackgrass plant response rating (0 to 100 scale) [3, 20] | Plant response rating, Blackgrass [3, 22]
90: Plant response rating, Kochia [8, 21] | Plant response rating, Crabgrass, Large [10, 22] | Plant response rating, Crabgrass, Large [10, 21]
30: Plant response rating, Oat, Wild [16, 21]
95: Lambsquarters plant response rating (0 to 100 scale) [9, 20] | Plant response rating, Soybean [13, 21]
65: Plant response rating, Soybean [13, 19] | Cupgrass, Woolly plant response rating (0 to 100 scale) [17, 20] | Plant response rating, Cupgrass, Woolly [17, 22] | Plant response rating, Nutsedge, Yellow [18, 21]
75: Crabgrass, Large plant response rating (0 to 100 scale) [10, 20]
15: Johnsongrass plant response rating (0 to 100 scale) [7, 20]

O=C1CCCC(O)=C1C(=O)c1cnc(C2CCCC2)n(-c2ccccc2)c1=O [Compound 92]
75: Plant response rating, Surinam Grass [2, 21] | Plant response rating, Kochia [8, 19] | Plant response rating, Ragweed [12, 21] | Plant response rating, Nutsedge, Yellow [18, 21]
5: Plant response rating, Blackgrass [3, 22] | Plant response rating, Blackgrass [3, 21] | Bromegrass, Downy plant response rating (0 to 100 scale) [5, 20] | Oat, Wild plant response rating (0 to 100 scale) [16, 20]
98: Lambsquarters plant response rating (0 to 100 scale) [9, 20] | Plant response rating, Crabgrass, Large [10, 22] | Soybean plant response rating (0 to 100 scale) [13, 20] | Plant response rating, Soybean [13, 21]
90: Plant response rating, Goosegrass [6, 21] | Kochia plant response rating (0 to 100 scale) [8, 20] | Plant response rating, Lambsquarters [9, 19] | Crabgrass, Large plant response rating (0 to 100 scale) [10, 20] | Plant response rating, Pigweed [11, 19] | Plant response rating, Soybean [13, 19]
100: Plant response rating, Johnsongrass [7, 21] | Plant response rating, Kochia [8, 21] | Plant response rating, Lambsquarters [9, 21] | Plant response rating, Crabgrass, Large [10, 21] | Pigweed plant response rating (0 to 100 scale) [11, 20] | Plant response rating, Pigweed [11, 21] | Velvetleaf plant response rating (0 to 100 scale) [14, 20] | Plant response rating, Velvetleaf [14, 21]
65: Surinam Grass plant response rating (0 to 100 scale) [2, 20] | Plant response rating, Cupgrass, Woolly [17, 22] | Nutsedge, Yellow plant response rating (0 to 100 scale) [18, 20]
60: Plant response rating, Corn [4, 21] | Plant response rating, Goosegrass [6, 19] | Ragweed plant response rating (0 to 100 scale) [12, 20]
20: Plant response rating, Corn [4, 19] | Plant response rating, Bromegrass, Downy [5, 22] | Plant response rating, Bromegrass, Downy [5, 21] | Plant response rating, Johnsongrass [7, 19]
10: Plant response rating, Oat, Wild [16, 21] | Plant response rating, Cupgrass, Woolly [17, 19]
95: Plant response rating, Velvetleaf [14, 19]
40: Plant response rating, Ragweed [12, 19]
80: Plant response rating, Crabgrass, Large [10, 19]
30: Plant response rating, Ryegrass, Italian [1, 21]
0: Plant response rating, Ryegrass, Italian [1, 19] | Ryegrass, Italian plant response rating (0 to 100 scale) [1, 20] | Plant response rating, Blackgrass [3, 19] | Blackgrass plant response rating (0 to 100 scale) [3, 20] | Plant response rating, Bromegrass, Downy [5, 19] | Plant response rating, Wheat [15, 19] | Wheat plant response rating (0 to 100 scale) [15, 20] | Plant response rating, Wheat [15, 21] | Plant response rating, Oat, Wild [16, 19]
25: Plant response rating, Surinam Grass [2, 19] | Cupgrass, Woolly plant response rating (0 to 100 scale) [17, 20]
85: Johnsongrass plant response rating (0 to 100 scale) [7, 20]
45: Plant response rating, Corn [4, 22] | Plant response rating, Nutsedge, Yellow [18, 19]
70: Goosegrass plant response rating (0 to 100 scale) [6, 20] | Plant response rating, Cupgrass, Woolly [17, 21]
35: Corn plant response rating (0 to 100 scale) [4, 20]
